Results reported in article PMC8217011, “Natural brominated phenoxyphenols kill persistent and biofilm-incorporated cells of MRSA and other pathogenic bacteria” (Applied Microbiology and Biotechnology, 2020).
Converted amounts (≈) assume the structure as drawn. “And” between values parts separate entries of the source, which are not always exact repeats. Equal values may be shown once.

Tests used:
[1] = system: pre-formed MRSA biofilms; test: Biofilm viability by CFU plating; type: cell-based, Staphylococcus aureus; conditions: 24 h of treatment, 4× minimal biofilm inhibitory concentration, moxifloxacin 20 μM
Description: Additionally, biofilm viability was quantified by CFU plating. Biofilms were pregrown as described above and treated for 24 h with 4× minimal biofilm inhibitory concentrations as calculated from the Resazurin reduction assay. Biofilms were dispersed by pipetting followed by sonification in a water bath. Dilutions were plated on Mueller-Hinton agar plates and incubated overnight at 37 °C.

[2] = system: S. aureus mutant M2 (parental strain ATCC 25923); test: MIC of spontaneously resistant mutant; type: cell-based; conditions: Staphylococcus aureus, ATCC25923
Description: (§1) The minimal inhibitory concentration (MIC) has been determined according to the CSLI guidelines (CLSI [2012]). Briefly, in a sterile polystyrene U-bottom 96-well plate, a 2-fold serial dilution ranging from 100 to 0.78 μM of testing compounds has been prepared in 50 μL MHB. A freshly inoculated S. aureus culture was grown until OD600 nm of approx. 0.6 and diluted to 10^6 CFU/mL in MHB. Finally, 50 μL of the latter cell suspension was added to each well and then incubated statically for 18–24 h at 37 °C. MIC was determined using BacTiterGlo ATP assay (Promega, Madison, WI, USA) and Tecan Infinite F200 Pro (Tecan, Männedorf, Switzerland). Moxifloxacin and DMSO were used as positive and negative control, respectively. Sublethal concentrations of colistin (0.1 μM) were used in some experiments to increase the permeability of the gram-negative cell envelope for compound testing. For E. cloacae, a broth microdilution assay was performed using a serial 2-fold dilution in 96-well flat-bottomed plates (Falcon, BD Bioscience, Heidelberg) of both PPs in broth LB medium (Roth, Karlsruhe) at a concentration range of 50–0.024 μM.
(§2) Spontaneous resistant mutants have been generated with 2-bromo-PP and 3-bromo-PP to further investigate the mechanism of antibacterial action and resistance. Since isolation of spontaneous resistant mutants in one step was not successful on solid media containing 2-bromo-PP or 3-bromo-PP (i.e. resistance frequency < 10^−7 at 5-fold MIC), enrichment was done by passaging bacteria daily in liquid media containing increasing sublethal concentrations of PPs. […] Moreover, we observed cross-resistance between PPs since 2-bromo-PP-resistant mutants were also resistant against 3-bromo-PP and vice versa (Fig. 4a; Table 2).

[3] = system: preformed biofilms of P. aeruginosa POA1; test: Antibiofilm activity assay, viability by Resazurin reduction; type: cell-based, Pseudomonas aeruginosa
[4] = system: S. aureus; test: Generation of spontaneous resistant mutants; type: cell-based, Staphylococcus aureus; conditions: for fold increased MIC of mutants: after 15 passages in liquid media with increasing sublethal concentrations; for resistance frequency: one-step selection on solid media at 5-fold MIC
From the text: as §2

[5] = system: persisters of MRSA Mu50; test: Antipersister activity assay (Resazurin); type: cell-based; conditions: Staphylococcus aureus, 24 h, read-out: MIC against persisters
Description: (§3) Cultures were, if not stated differently, incubated at 37 °C with aeration and shaking (150 rpm) in Mueller-Hinton broth (MHB). Bacteria were freshly incubated at the next morning from an overnight pre-culture for actively growing bacteria to an OD600 nm of approx. 0.6. To ensure persistent growth form, the bacteria were grown overnight until a density at OD600 nm > 5.0 was obtained. For biofilm growth, some colonies from a Mueller-Hinton agar (MHA) plate were picked and resuspended in MHB. Cell density has been adjusted to OD600 nm = 0.8, and cells were sown into a flat-bottom 96-well plate to be incubated statically at 37 °C with aeration. Studies were mainly performed with S. aureus Mu50.
Sterile U-bottom 96-well polystyrene plates were used for the assay. The wells were prepared with a final volume of 50 μL phosphate-buffered saline (PBS, NaCl = 137 mM, KCl = 2.7 mM, NaHPO4 = 10 mM, KH2PO4 = 1.8 mM, pH = 7.4) containing a 2-fold serial dilution of compounds ranging from 100 to 0.78 μM. S. aureus was cultivated as described above and washed three times with PBS before adjusting the cell density to approx. 2 × 10^7 cells/mL (OD600 nm = 0.08). […]
Viability of bacterial cells was estimated employing the Resazurin dye reduction assay. […] Finally, the fluorescence was quantified in a plate reader with 535-nm excision and 590-nm emission wavelengths. […]

[6] = system: S. aureus COL; test: MIC determination (microbroth dilution); type: cell-based; conditions: Staphylococcus aureus
Description: as §3, §1

[7] = system: E. faecium ATCC 700221; test: MIC determination (microbroth dilution); type: cell-based; conditions: Enterococcus faecium, ATCC700221
Description: as §3, §1

[8] = system: S. aureus USA300; test: MIC determination (microbroth dilution); type: cell-based; conditions: Staphylococcus aureus
Description: as §3, §1

[9] = system: Enterococcus faecium ATCC 35667; test: MIC determination (microbroth dilution); type: cell-based; conditions: ATCC35667
Description: as §3, §1

[10] = system: S. aureus Mu50; test: MIC determination (microbroth dilution); type: cell-based; conditions: Staphylococcus aureus
Description: as §3, §1

[11] = system: Klebsiella pneumoniae ATCC 700603; test: MIC determination (microbroth dilution); type: cell-based; conditions: ATCC700603
Description: as §3, §1

[12] = system: E. faecalis ATCC 51299; test: MIC determination (microbroth dilution); type: cell-based; conditions: Enterococcus faecalis, ATCC51299
Description: as §3, §1

[13] = system: S. aureus TCH1516; test: MIC determination (microbroth dilution); type: cell-based; conditions: Staphylococcus aureus
Description: as §3, §1

[14] = system: Staphylococcus aureus strain ATCC 25923; test: MIC determination (microbroth dilution); type: cell-based; conditions: ATCC25923
Description: as §3, §1

[15] = system: Escherichia coli ATCC 25922; test: MIC determination (microbroth dilution); type: cell-based; conditions: Escherichia coli
Description: as §3, §1

[16] = system: Bacillus subtilis 168 trp C2; test: MIC determination (microbroth dilution); type: cell-based; conditions: 168TRPC2
Description: as §3, §1

[17] = system: Acinetobacter baumannii ATCC 747; test: MIC determination (microbroth dilution); type: cell-based; conditions: Acinetobacter baumannii, ATCC747
Description: as §3, §1

[18] = system: A. baumannii ATCC 1605; test: MIC determination (microbroth dilution); type: cell-based; conditions: Acinetobacter baumannii, ATCC1605, multidrug-resistant strain
Description: as §3, §1

[19] = system: Pseudomonas aeruginosa PAO1; test: MIC determination (microbroth dilution); type: cell-based
Description: as §3, §1

[20] = system: E. faecalis ATCC 29212; test: MIC determination (microbroth dilution); type: cell-based; conditions: Enterococcus faecalis, ATCC29212
Description: as §3, §1

| Structure (SMILES) | reduction in viable cell counts in biofilms [1] | MIC90 [2] | concentration of complete inhibition of cell viability in biofilms [3] | fold increased MIC of mutants [4] | resistance frequency [4] | MIC [5] | MIC90 [6] | MIC90 [7] | MIC90 [8] | MIC90 [9] | MIC90 [10] | MIC90 [11] | MIC90 [12] | MIC90 [13] | MIC90 [14] | MIC90 ([15]; ATCC25922, + 0.1 μM colistin) | MIC90 ([15]; ATCC25922, without colistin) | MIC90 [16] | MIC90 [17] | MIC90 ([18]; + 0.1 μM colistin) | also measured |
| --- | --- | --- | --- | --- | --- | --- | --- | --- | --- | --- | --- | --- | --- | --- | --- | --- | --- | --- | --- | --- | --- |
| Oc1c(Br)cc(Br)cc1Oc1ccc(Br)cc1Br [2-bromo-PP, 4,6-dibromo-2-(2′,4′-dibromophenoxy)phenol] | ca. 5 order of magnitudes | 1.56 µM and 0.78 µg/mL | 25 µM | 4 fold | < 10^−7 | 12.5 µM (≈ 6.27 µg/mL) | 0.78 µM and 0.39 µg/mL | 0.78 µM and 0.39 µg/mL | 0.78 µM and 0.39 µg/mL | 0.78 µM and 0.39 µg/mL | 0.19 µM and 0.1 µg/mL | 1.56 µM and 0.78 µg/mL | 0.78 µM and 0.39 µg/mL | 0.78 µM and 0.39 µg/mL | 0.39 µM and 0.2 µg/mL | 0.04 µM and 0.02 µg/mL | 3.12 µM and 1.57 µg/mL | 0.39 µM and 0.2 µg/mL | 0.78 µM and 0.39 µg/mL | 0.39 µM and 0.2 µg/mL | MIC90 ([18]; without colistin): 0.78 µM and 0.39 µg/mL; MIC90 [19]: 0.78 µM and 0.39 µg/mL; MIC90 [20]: 0.78 µM and 0.39 µg/mL |
| Oc1c(Br)cc(Br)c(Br)c1Oc1ccc(Br)cc1Br [3-bromo-PP, 3,4,6-tribromo-2-(2′,4′-dibromophenoxy)phenol] | ca. 5 order of magnitudes | 3.12 µM and 1.81 µg/mL | 50 µM | 32 fold | < 10^−7 | 6.25 µM (≈ 3.63 µg/mL) | 0.78 µM and 0.45 µg/mL | 0.78 µM and 0.45 µg/mL | 0.39 µM and 0.23 µg/mL | 0.39 µM and 0.23 µg/mL | 0.1 µM and 0.06 µg/mL | 3.12 µM and 1.81 µg/mL | 0.78 µM and 0.45 µg/mL | 0.78 µM and 0.45 µg/mL | 0.78 µM and 0.45 µg/mL | 0.04 µM and 0.02 µg/mL | 6.25 µM and 3.63 µg/mL | 0.39 µM and 0.23 µg/mL | 3.12 µM and 1.81 µg/mL | 0.78 µM and 0.45 µg/mL | MIC90 ([18]; without colistin): 1.56 µM and 0.91 µg/mL; MIC90 [19]: 1.56 µM and 0.9 µg/mL; MIC90 [20]: 0.78 µM and 0.45 µg/mL |
